{"source": "patent US9000027B2", "about": "“Chk1 suppresses a caspase-2 apoptotic response to DNA damage that bypasses p53, bcl-2 and caspase-3” (Dana-Farber Cancer Institute, Inc., priority 2008, dated 2015)", "key": {"p53 mutant embryos": {"system": "p53 mutant embryos", "assay": "Live acridine orange (AO) assay of IR-induced cell death in inhibitor-treated p53 mutant embryos", "assay_type": "in vivo, zebrafish", "details": "12.5 Gy at 18 hpf; Gö6976 1 μM, KU55933 10 μM, Chk2 Inhibitor II 10 μM; 6 hr", "source_text": "(§1) Chk1 inhibitors hold considerable promise in cancer therapy, as they are expected to synergize with genotoxic agents to kill tumor cells lacking functional p53, without affecting normal cells (Kawabe, 2004; Zhou and Bartek, 2004). […] Gö6976 has not been tested in vivo in a vertebrate model system. We therefore evaluated it as well as specific Chk2 and ATM inhibitors in the zebrafish system. Drug toxicity was monitored by scoring the AO reactivity of inhibitor-treated, but non-irradiated, p53^+/+ embryos (left column in FIG. 8A). Unless otherwise indicated, the inhibitors were applied at 18 hpf (that is, immediately before IR) for a total of 6 hours.\nLive zebrafish embryos were dechorionated in pronase (2.0 mg/mL in egg water) for 3 to 5 min and rinsed five times in egg water at 18 hpf. Embryos were then γ-irradiated (12.5 Gy) using a ^137Cs-irradiator (Gammacell 1000) at 18 hr post-fertilization (hpf). At 24 hpf, embryos were incubated in […] Acridine Orange (AO; Sigma A-6014) in egg water for 30 min at 28.5° C., followed by 3 quick rinses and three 10-min washes in egg water. 5-10 AO-treated embryos were anesthetized in Tricaine ([…]; 3-amino benzoic acid ethylester from Sigma, A-5040) and mounted laterally on a glass slide in warm 0.5% agarose in egg water by streaking a thin layer of the warm agarose across the surface of the slide, and gently pulling the embryos across the agar with a transfer pipette. Lateral images of each zebrafish were acquired on a Zeiss Axioplan2 fluorescence microscope (5× lens), using OpenLab software and a Hammamatsu C4742-95 digital camera. All images were then converted to 8-bit grayscale in NIH ImageJ using the Image>Type>8-bit command. Next, we cropped the images using the Polyonal Selection tool and the Image>Crop functions to include only the trunk of the animal from the head until the beginning of the yolk tube (MO screen; FIG. 1B) or along the entire spinal cord (epistasis analyses; FIGS. 6A & 6D). The area outside of the selected region of interest was cleared using the Edit>Clear Outside command to create a distinct boundary around the area of interest (this is important as it allows the area of interest to be precisely selected after applying the threshold). Next, we split the acquired images into features of interest and background using the Image>Adjust>Threshold function in NIH ImageJ. We then set the maximum threshold of each image to 255 (the lower slide bar in the Threshold window), and adjusted the minimum threshold to the optimized threshold (see below). The threshold was applied using the Black & White display option, with the following Lut options applied; Thresholded pixels to foreground color; Remaining pixels to background color and Black foreground, white background. […] Next, we re-selected the region of interest on the thresholded image, following the bounded image carefully, and analyzed the pixels of the image using the Analyze>Analyze Particles function. The Minimum Size was set to 1px, the Maximum Size was set to the maximum value of 999999 and the Masks option was selected under the Show pull-down menu. The following extended options were also selected: Display Results; Clear Results; Summarize, Size Distribution and Record Starts. If selected by default, the Exclude on Edges option was deselected. The Area Fraction for each image selection was taken from the Summary window, which is the percentage of pixels in the selection that were black. To ensure valid comparisons of the AO labeling results across all experiments, we quantitatively determined a baseline Area Fraction across a large set of simultaneously irradiated and processed p53^+/+ embryos. […] This analysis yielded a mean value for the total labeled surface area of ˜20% (see FIG. 1B, light gray bar). We included at least 6 p53^+/+ non-injected control embryos in all subsequent AO-labeling experiments. […]"}, "p53^+/+ embryos": {"system": "p53^+/+ embryos", "assay": "Drug toxicity: AO reactivity and development of inhibitor-treated, non-irradiated p53+/+ embryos", "assay_type": "in vivo, zebrafish", "details": "0 Gy; Gö6976 1 μM, KU55933 10 μM, Chk2 Inhibitor II 10 μM", "source_text": "as §1\nImmediately before IR, 18-hpf embryos were dechorionated and transferred to fresh egg water containing 1% DMSO, with or without the following inhibitors at indicated final concentrations: KU55933 (10 μM; Sigma) (Hickson et al., 2004); Chk2 Inhibitor II (10 μM; Calbiochem) (Arienti et al., 2005); Gö6976 (1 μM; Calbiochem) (Kohn et al., 2003). Unless stated otherwise, embryos were exposed to the inhibitors for 6 hr, transferred to fresh egg water, rinsed five times for 5 min, and labeled with AO. For experiments with Tg(rag2:EGFP-bcl-2) larvae, larvae were incubated in the inhibitor solution at 4 dpf, irradiated at 5 dpf, rinsed at 6 dpf, incubated in fresh inhibitor for an additional 72 hr, and mounted live at 9 dpf for fluorescence microscopic analysis of EGFP expression."}, "[1]": {"system": "p53^e7/e7;chk1^MO embryos", "assay": "Epistasis analyses in irradiated p53^e7/e7;chk1^MO embryos (live AO assay)", "assay_type": "in vivo", "details": "12.5 Gy", "method": "To identify such molecules, we performed in vivo epistasis analyses in zebrafish by knocking down or forcing the expression of candidate pathway contributors in p53^e7/e7;chk1^MO embryos.\nMorpholino oligonucleotides (MOs) synthesized by Gene Tools™ LLC, were resuspended in sterile water at a concentration of 1 mM and delivered into zebrafish embryos at the one-cell stage by microinjection. The injection apparatus consisted of a heat-pulled, filamentous RNAse free capillary tube positioned by a micromanipulator (Narishige™ M-125), through which the MO was pressure-injected using a nitrogen air supply controlled by a microinjector (Harvard Apparatus™ PLI-100). MOs were delivered into the yolk of embryos at the one cell stage, just below the cytoplasm. For each previously unpublished MO, the working concentration was determined as the highest dose compatible with normal zebrafish development in the p53^e7/e7 background (maximal subtoxic concentration). […] 100 ng of bcl-xl mRNA in vitro transcribed from full-length zebrafish bcl-xl cDNA cloned into pCS2 were injected as described above. All embryos were grown at 28.5° C. in egg water (5 mM NaCl, 0.17 mM KCl, 0.4 mM CaCl2 and 0.16 mM MgSO4). Knockdown efficiencies for the chk1, chk2, atm, atr, p63, casp8 and casp9 MOs at their maximal subtoxic concentrations are shown in FIG. 10. The sequences of the PCR primers used for RT-PCR-based monitoring of MO efficiencies are available upon request.\nLive zebrafish embryos were dechorionated in pronase (2.0 mg/mL in egg water) for 3 to 5 min and rinsed five times in egg water at 18 hpf. […] At 24 hpf, embryos were incubated in […] Acridine Orange (AO; Sigma A-6014) in egg water for 30 min at 28.5° C., followed by 3 quick rinses and three 10-min washes in egg water. 5-10 AO-treated embryos were anesthetized in Tricaine ([…]; 3-amino benzoic acid ethylester from Sigma, A-5040) and mounted laterally on a glass slide in warm 0.5% agarose in egg water by streaking a thin layer of the warm agarose across the surface of the slide, and gently pulling the embryos across the agar with a transfer pipette. Lateral images of each zebrafish were acquired on a Zeiss Axioplan2 fluorescence microscope (5× lens), using OpenLab software and a Hammamatsu C4742-95 digital camera. All images were then converted to 8-bit grayscale in NIH ImageJ using the Image>Type>8-bit command. Next, we cropped the images using the Polyonal Selection tool and the Image>Crop functions to include only the trunk of the animal from the head until the beginning of the yolk tube (MO screen; FIG. 1B) or along the entire spinal cord (epistasis analyses; FIGS. 6A & 6D). The area outside of the selected region of interest was cleared using the Edit>Clear Outside command to create a distinct boundary around the area of interest (this is important as it allows the area of interest to be precisely selected after applying the threshold). Next, we split the acquired images into features of interest and background using the Image>Adjust>Threshold function in NIH ImageJ. We then set the maximum threshold of each image to 255 (the lower slide bar in the Threshold window), and adjusted the minimum threshold to the optimized threshold (see below). The threshold was applied using the Black & White display option, with the following Lut options applied; Thresholded pixels to foreground color; Remaining pixels to background color and Black foreground, white background. […] Next, we re-selected the region of interest on the thresholded image, following the bounded image carefully, and analyzed the pixels of the image using the Analyze>Analyze Particles function. The Minimum Size was set to 1px, the Maximum Size was set to the maximum value of 999999 and the Masks option was selected under the Show pull-down menu. The following extended options were also selected: Display Results; Clear Results; Summarize, Size Distribution and Record Starts. […]"}}, "data": [{"compound": "NC(=O)c1ccc2nc(-c3ccc(Oc4ccc(Cl)cc4)cc3)[nH]c2c1", "note": "[Chk2 Inhibitor II]", "values": [{"measurement": "radiosensitization of p53 mutants (IR-induced AO labeling)", "setting": "p53 mutant embryos", "result": "only modestly radiosensitized"}, {"measurement": "toxicity of the dose used (AO reactivity of non-irradiated embryos)", "setting": "p53^+/+ embryos", "result": "relatively toxic"}]}, {"compound": "O=c1cc(-c2cccc3c2Sc2ccccc2S3)oc(N2CCOCC2)c1", "note": "[KU55933]", "values": [{"measurement": "radiosensitization of p53 mutants (IR-induced AO labeling)", "setting": "p53 mutant embryos", "result": "only modestly radiosensitized"}, {"measurement": "toxicity of the dose used (AO reactivity of non-irradiated embryos)", "setting": "p53^+/+ embryos", "result": "relatively toxic"}]}, {"compound": "fadd MO: morpholino against zebrafish FADD, gt e3/i3 (SEQ ID NO: 30) (antisense TAACGTTACCAACCTCGCTCTTTCG; all phosphorodiamidate morpholino (PMO))", "values": [{"measurement": "effect on IR-induced cell death (AO labeling) of p53^e7/e7;chk1^MO embryos", "setting": "[1]", "result": "failed to affect AO staining"}]}, {"compound": "puma MO: morpholino against zebrafish puma, gt e2/i2 (SEQ ID NO: 27) (antisense AACCAAGCATGACTCTTACCCTCTG; all phosphorodiamidate morpholino (PMO))", "values": [{"measurement": "effect on IR-induced cell death (AO labeling) of p53^e7/e7;chk1^MO embryos", "setting": "[1]", "result": "did not significantly affect AO labeling"}]}, {"compound": "p63 MO: morpholino against zebrafish p63, gt e3/i3 (SEQ ID NO: 28) (antisense AAAGAGTGGCATACCGTCATTGAAC; all phosphorodiamidate morpholino (PMO))", "values": [{"measurement": "effect on IR-induced cell death (AO labeling) of p53^e7/e7;chk1^MO embryos", "setting": "[1]", "result": "failed to compromise IR-induced cell death"}]}, {"compound": "mismatch version of casp2 MO1: 5 base-pair mismatch casp2 morpholino (SEQ ID NO: 24) (antisense CGGTGAAAGCCTCTTCTACCTCTGG; all phosphorodiamidate morpholino (PMO))", "values": [{"measurement": "effect on IR-induced cell death (AO labeling) of p53^e7/e7;chk1^MO embryos", "setting": "[1]", "result": "had no effect"}]}, {"compound": "casp2 MO1: morpholino targeting the splice donor site of intron 4 of zebrafish casp2 (SEQ ID NO: 22) (CGCTGAAACCCTGTTGTACCTGTGG; all phosphorodiamidate morpholino (PMO))", "values": [{"measurement": "AO labeling, of the mean p53^e7/e7;chk1^MO response", "setting": "[1]; 7.5 hpIR", "result": 16, "unit": "%"}, {"measurement": "mean decrease in AO labeling compared with p53^e7/e7;chk1^MO embryos", "setting": "[1]; three separate experiments", "result": 6, "unit": "fold"}]}, {"compound": "p73 MO: morpholino against zebrafish TAp73 atg/5'UTR (SEQ ID NO: 29) (antisense GGATGTTGGACAATCCACCGCAGGG; all phosphorodiamidate morpholino (PMO))", "values": [{"measurement": "effect on IR-induced cell death (AO labeling) of p53^e7/e7;chk1^MO embryos", "setting": "[1]", "result": "failed to compromise IR-induced cell death"}]}, {"compound": "atm MO: morpholino against zebrafish atm, splice acceptor i55/e56 (SEQ ID NO: 14) (GAAAACGGCACCACCTGGTAAAAAC; antisense; all phosphorodiamidate morpholino (PMO))", "values": [{"measurement": "reduction of the mean p53^e7/e7;chk1^MO AO response", "setting": "[1]", "result": "~60", "unit": "%"}]}, {"compound": "casp8 MO: morpholino against zebrafish casp8 splice donor site (SEQ ID NO: 25) (antisense ACAGGGTTTTAACTCACAGTAGATC; all phosphorodiamidate morpholino (PMO))", "values": [{"measurement": "effect on IR-induced cell death (AO labeling) of p53^e7/e7;chk1^MO embryos", "setting": "[1]", "result": "did not differ"}]}, {"compound": "casp2 MO2: second casp2 morpholino, gt e3/i3 (SEQ ID NO: 23) (antisense ACCATACTAAAGTACCAACCATGAG; all phosphorodiamidate morpholino (PMO))", "values": [{"measurement": "effect on IR-induced cell death (AO labeling) of p53^e7/e7;chk1^MO embryos", "setting": "[1]", "result": "significantly reduced IR-induced death"}]}]}
